Measured values published in ChEMBL document CHEMBL4393682, “Development of M10, myricetin-3-O-β-d-lactose sodium salt, a derivative of myricetin as a potent agent of anti-chronic colonic inflammation” (Eur J Med Chem, 2019).
In brackets after ≈: the same amount, converted by molar mass. One block for each compound: values may come before it. Activity calls are given as the source filed them. No cut-off for these calls is given here.

What was measured:
Mus musculus [1] = test: Anti-inflammatory activity against DSS-induced ulcerative colitis C57BL/6 mouse model assessed as colon length at 100 mg/kg, ig administered for 7 consecutive days followed by 7 days treatment with drinking water followed by three additional DSS treatment cycles (reference value: 5.93 +/- 0.52 cm); assay type: functional
Mus musculus [2] = test: Anti-inflammatory activity against DSS-induced ulcerative colitis C57BL/6 mouse model assessed as increase in colon length administered via gavage once a day for 14 consecutive days starting from second day post DSS challenge; assay type: functional, organism-based
[3] = Aqueous solubility of compound after 24 hrs by HPLC analysis; assay type: physicochemical; details: for solubility at 24 h: aqueous; for solubility: buffer, 24 h
[4] = Ratio of compound t1/2 to myricetin t1/2 in Wistar rat liver microsomes at 1 uM measured up to 120 mins by LC-MS/MS analysis; assay type: ADME, Microsome; details: 2 h
[5] = Elimination rate constant in Wistar rat liver microsomes at 1 uM measured up to 120 mins by LC-MS/MS analysis; assay type: ADME, Microsome
[6] = Metabolic stability in Wistar rat plasma assessed as compound remaining at 3 uM after 120 mins by LC-MS/MS analysis relative to control; assay type: ADME, cell-free; details: read-out: Stability
[7] = Metabolic stability in Wistar rat plasma assessed as compound remaining at 3 uM after 90 mins by LC-MS/MS analysis relative to control; assay type: ADME, cell-free; details: read-out: Stability
[8] = Half life in Wistar rat liver microsomes at 1 uM measured up to 120 mins by LC-MS/MS analysis; assay type: ADME, Microsome; details: 2 h
[9] = Metabolic stability in Wistar rat plasma assessed as compound remaining at 3 uM after 10 mins by LC-MS/MS analysis relative to control; assay type: ADME, cell-free; details: read-out: Stability
[10] = Metabolic stability in Wistar rat liver microsomes assessed as compound remaining at 1 uM after 10 mins by LC-MS/MS analysis relative to control; assay type: ADME, Microsome; details: read-out: Stability
[11] = Elimination rate constant in Wistar rat plasma at 3 uM measured up to 180 mins by LC-MS/MS analysis; assay type: ADME, cell-free
[12] = Metabolic stability in Wistar rat plasma assessed as compound remaining at 3 uM after 40 mins by LC-MS/MS analysis relative to control; assay type: ADME, cell-free; details: read-out: Stability
[13] = Metabolic stability in Wistar rat plasma assessed as compound remaining at 3 uM after 180 mins by LC-MS/MS analysis relative to control; assay type: ADME, cell-free; details: read-out: Stability
[14] = Metabolic stability in Wistar rat liver microsomes assessed as compound remaining at 1 uM after 90 mins by LC-MS/MS analysis relative to control; assay type: ADME, Microsome; details: read-out: Stability
[15] = Metabolic stability in Wistar rat plasma assessed as compound remaining at 3 uM after 20 mins by LC-MS/MS analysis relative to control; assay type: ADME, cell-free; details: read-out: Stability
[16] = Metabolic stability in Wistar rat liver microsomes assessed as compound remaining at 1 uM after 20 mins by LC-MS/MS analysis relative to control; assay type: ADME, Microsome; details: read-out: Stability
[17] = Ratio of compound solubility to myricetin solubility in water after 24 hrs by HPLC analysis; assay type: physicochemical; details: buffer
[18] = Metabolic stability in Wistar rat liver microsomes assessed as compound remaining at 1 uM after 5 mins by LC-MS/MS analysis relative to control; assay type: ADME, Microsome; details: read-out: Stability
Mus musculus [19] = test: Anti-inflammatory activity against DSS-induced ulcerative colitis C57BL/6 mouse model assessed as colon length at 50 mg/kg, ig administered via gavage once a day for 14 consecutive days starting from second day post DSS challenge (reference value: 5.93 to 7.1 cm); assay type: functional
Mus musculus [20] = test: Anti-inflammatory activity against DSS-induced ulcerative colitis C57BL/6 mouse model assessed as decrease in inflammatory score at 50 mg/kg, ig administered via gavage once a day for 14 consecutive days starting from second day post DSS challenge; assay type: functional, organism-based
[21] = Metabolic stability in Wistar rat liver microsomes assessed as compound remaining at 1 uM after 40 mins by LC-MS/MS analysis relative to control; assay type: ADME, Microsome; details: read-out: Stability
[22] = Metabolic stability in Wistar rat plasma assessed as compound remaining at 3 uM after 60 mins by LC-MS/MS analysis relative to control; assay type: ADME, cell-free; details: read-out: Stability
[23] = Ratio of compound t1/2 to myricetin t1/2 in Wistar rat plasma at 3 uM measured up to 180 mins by LC-MS/MS analysis; assay type: ADME, cell-free; details: 3 h
[24] = Metabolic stability in Wistar rat liver microsomes assessed as compound remaining at 1 uM after 60 mins by LC-MS/MS analysis relative to control; assay type: ADME, Microsome; details: read-out: Stability
[25] = Metabolic stability in Wistar rat liver microsomes assessed as compound remaining at 1 uM after 30 mins by LC-MS/MS analysis relative to control; assay type: ADME, Microsome; details: read-out: Stability
Mus musculus [26] = test: Anti-inflammatory activity against DSS-induced ulcerative colitis C57BL/6 mouse model assessed as mild cellular infiltration in colon at 50 mg/kg, ig administered via gavage once a day for 14 consecutive days starting from second day post DSS challenge by H and E staining based analysis; assay type: functional, organism-based
[27] = Half life in Wistar rat plasma at 3 uM measured up to 180 mins by LC-MS/MS analysis; assay type: ADME, cell-free
[28] = Metabolic stability in Wistar rat plasma assessed as compound remaining at 3 uM after 5 mins by LC-MS/MS analysis relative to control; assay type: ADME, cell-free; details: read-out: Stability
[29] = Toxicity in po dosed mouse; assay type: organism-based; details: in vivo
[30] = Metabolic stability in Wistar rat liver microsomes assessed as compound remaining at 1 uM after 120 mins by LC-MS/MS analysis relative to control; assay type: ADME, Microsome; details: read-out: Stability
Mus musculus [31] = test: Anti-inflammatory activity against DSS-induced ulcerative colitis C57BL/6 mouse model assessed as colon length at 100 mg/kg, ig administered via gavage once a day for 14 consecutive days starting from second day post DSS challenge (reference value: 5.93 +/- 0.52 cm); assay type: functional

SMILES: Nc1ccc(O)c(C(=O)O)c1 [MESALAMINE]
Activity (Mus musculus [1]): 7.15 cm

solubility at 24 h [3]: 1390 µg/mL (≈ 1480 µM)
SMILES: CC(=O)OC[C@H]1O[C@@H](O[C@H]2[C@H](OC(C)=O)[C@@H](OC(C)=O)[C@H](Oc3c(-c4cc(O)c(O)c(O)c4)oc4cc(O)cc(O)c4c3=O)O[C@@H]2COC(C)=O)[C@H](OC(C)=O)[C@@H](OC(C)=O)[C@H]1OC(C)=O
Activity (Mus musculus [2]): Active

SMILES: O=c1c(O[C@@H]2O[C@H](CO)[C@@H](O[C@@H]3O[C@H](CO)[C@H](O)[C@H](O)[C@H]3O)[C@H](O)[C@H]2O)c(-c2cc(O)c(O)c(O)c2)oc2cc([O-])cc(O)c12.[Na+]
Ratio [4]: 20 | k el at 2 h, 1 µM [5]: 0.000167 s⁻¹ | remaining at 2 h, 3 µM [6]: 55% | remaining at 1.5 h, 3 µM [7]: 67.8% | t1/2 [8]: 6.8098 h | remaining at 10 min, 3 µM [9]: 88.9% | remaining at 10 min, 1 µM [10]: 89.7% | k el at 3 h, 3 µM [11]: 0.000167 s⁻¹ | remaining at 40 min, 3 µM [12]: 82.4% | remaining at 3 h, 3 µM [13]: 58.4% | remaining at 1.5 h, 1 µM [14]: 78.1% | remaining at 20 min, 3 µM [15]: 79.8% | remaining at 20 min, 1 µM [16]: 82.5% | Ratio [17]: > 7000 | remaining at 5 min, 1 µM [18]: 96.6% | Activity (Mus musculus [19]): 8.11 - 10.6 cm | inhibition (Mus musculus [20]): Active | remaining at 40 min, 1 µM [21]: 87.5% | remaining at 1 h, 3 µM [22]: 67.7% | Ratio [23]: 10 | remaining at 1 h, 1 µM [24]: 83.5% | remaining at 0.5 h, 1 µM [25]: 87.2% | Activity (Mus musculus [26]): Active | half-life at 3 µM [27]: 2.42 h | remaining at 5 min, 3 µM [28]: 99.7% | LD50 [29]: > 5000 mg/kg | remaining at 2 h, 1 µM [30]: 76.1% | solubility at 24 h [3]: > 100000 µg/mL

solubility [3]: < 0.02 µg/mL
SMILES: O=C(Oc1cc(OC(=O)c2ccccc2O)c2c(=O)c(OC(=O)c3ccccc3O)c(-c3cc(OC(=O)c4ccccc4O)c(OC(=O)c4ccccc4O)c(OC(=O)c4ccccc4O)c3)oc2c1)c1ccccc1O
Activity (Mus musculus [2]): Active

solubility [3]: < 0.1 µg/mL
SMILES: O=C(Oc1c(-c2cc(O)c(O)c(O)c2)oc2cc(O)cc(OC(=O)c3ccccc3O)c2c1=O)c1ccccc1O
Activity (Mus musculus [2]): Active

k el at 2 h, 1 µM [5]: 0.0005 s⁻¹ | remaining at 2 h, 3 µM [6]: 1.23% | remaining at 1.5 h, 3 µM [7]: 0.96% | t1/2 [8]: 0.3397 h | remaining at 10 min, 3 µM [9]: 89.2% | remaining at 10 min, 1 µM [10]: 55.9% | k el at 3 h, 3 µM [11]: 0.000833 s⁻¹ | remaining at 40 min, 3 µM [12]: 19% | remaining at 3 h, 3 µM [13]: 0.53% | remaining at 1.5 h, 1 µM [14]: 3.32% | remaining at 20 min, 3 µM [15]: 62.1% | remaining at 20 min, 1 µM [16]: 31.6% | remaining at 5 min, 1 µM [18]: 81.3% | remaining at 40 min, 1 µM [21]: 8.01% | remaining at 1 h, 3 µM [22]: 5.81% | remaining at 1 h, 1 µM [24]: 4.85% | remaining at 0.5 h, 1 µM [25]: 18.1% | half-life at 3 µM [27]: 0.234 h | remaining at 5 min, 3 µM [28]: 98.1% | remaining at 2 h, 1 µM [30]: 1.9% | solubility at 24 h [3]: 14 µg/mL (≈ 44 µM)
SMILES: O=c1c(O)c(-c2cc(O)c(O)c(O)c2)oc2cc(O)cc(O)c12 [MYRICETIN]
Activity (Mus musculus [31]): 6.55 cm

solubility [3]: < 0.1 µg/mL
SMILES: CC(=O)OC[C@H]1O[C@@H](O[C@H]2[C@H](OC(C)=O)[C@@H](OC(C)=O)[C@H](Oc3c(-c4cc(OCc5ccccc5)c(OCc5ccccc5)c(OCc5ccccc5)c4)oc4cc(OCc5ccccc5)cc(O)c4c3=O)O[C@@H]2COC(C)=O)[C@H](OC(C)=O)[C@@H](OC(C)=O)[C@H]1OC(C)=O
Activity (Mus musculus [2]): Active
